Calls of active or inactive are those of the source. The rule behind the calls is not given here.
Experiments:
[1] = molecular target: Acetylcholinesterase (Electrophorus electricus) (UniProt O42275); assay: Inhibition of electric eel AChE using acetylthiocholine iodide as substrate preincubated with enzyme for 20 mins followed by substrate addition and measured after 20 mins by Ellman's method; parameters: concentration or dose not given beside the values; settings: time 40.0 min
Cholinesterase [2] = molecular target: Cholinesterase (Equus caballus, UniProt P81908); assay: Inhibition of equine BuChE using butyrylthiocholine iodide as substrate preincubated with enzyme for 20 mins followed by substrate addition and measured after 20 mins by Ellman's method
[3] = molecular target: Acetylcholinesterase (Homo sapiens) (UniProt P22303); assay: Inhibition of recombinant human AChE using acetylthiocholine iodide as substrate incubated for 5 mins relative to control
Cholinesterase [4] = molecular target: Cholinesterase (Homo sapiens, UniProt P06276); assay: Inhibition of human BuChE using butyrylthiocholine iodide as substrate incubated for 5 mins
[5] = molecular target: T1, Fatty-acid amide hydrolase 1 (Homo sapiens, UniProt O00519); assay: Inhibition of human FAAH using arachidonoyl amide as substrate incubated for 30 mins by fluorescence-based cayman assay
T1 sequence (O00519 whole entry): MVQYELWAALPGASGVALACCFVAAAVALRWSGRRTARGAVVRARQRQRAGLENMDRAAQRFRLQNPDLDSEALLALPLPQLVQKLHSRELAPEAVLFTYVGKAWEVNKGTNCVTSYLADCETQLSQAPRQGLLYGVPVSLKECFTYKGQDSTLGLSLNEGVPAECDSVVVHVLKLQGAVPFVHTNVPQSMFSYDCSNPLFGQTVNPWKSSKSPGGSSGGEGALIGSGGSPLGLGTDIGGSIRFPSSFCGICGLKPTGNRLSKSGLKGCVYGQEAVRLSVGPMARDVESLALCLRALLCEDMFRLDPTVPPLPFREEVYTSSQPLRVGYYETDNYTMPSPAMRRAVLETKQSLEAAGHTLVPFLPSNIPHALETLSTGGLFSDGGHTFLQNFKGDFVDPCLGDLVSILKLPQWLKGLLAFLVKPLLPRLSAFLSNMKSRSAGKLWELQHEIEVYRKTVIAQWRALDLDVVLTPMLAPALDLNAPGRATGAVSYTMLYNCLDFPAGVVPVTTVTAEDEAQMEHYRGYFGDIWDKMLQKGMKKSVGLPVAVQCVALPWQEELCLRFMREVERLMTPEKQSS

[6] = molecular target: Acetylcholinesterase (Electrophorus electricus) (UniProt O42275); assay: Inhibition of electric eel AChE using acetylthiocholine iodide as substrate preincubated with enzyme for 20 mins followed by substrate addition and measured after 20 mins by Ellman's method relative to control; parameters: concentration or dose not given beside the values; settings: time 40.0 min
L02 [7] = assay: Cytotoxicity against human L02 cells assessed as reduction in cell viability at 12.5 uM incubated for 24 hrs by MTT assay; assay type: toxicity, cell-based; settings: l02, 24 h
L02 [8] = assay: Cytotoxicity against human L02 cells assessed as reduction in cell viability at 50 uM incubated for 24 hrs by MTT assay; assay type: toxicity, cell-based; settings: l02, 24 h
PC-12 = assay: Neuroprotective activity against H2O2 induced rat PC12 cells assessed as increase in cell viability at 50 uM measured after 24 hrs by MTT assay relative to control; assay type: functional

Sequence of Cholinesterase (Equus caballus, UniProt P81908) (P81908 whole entry): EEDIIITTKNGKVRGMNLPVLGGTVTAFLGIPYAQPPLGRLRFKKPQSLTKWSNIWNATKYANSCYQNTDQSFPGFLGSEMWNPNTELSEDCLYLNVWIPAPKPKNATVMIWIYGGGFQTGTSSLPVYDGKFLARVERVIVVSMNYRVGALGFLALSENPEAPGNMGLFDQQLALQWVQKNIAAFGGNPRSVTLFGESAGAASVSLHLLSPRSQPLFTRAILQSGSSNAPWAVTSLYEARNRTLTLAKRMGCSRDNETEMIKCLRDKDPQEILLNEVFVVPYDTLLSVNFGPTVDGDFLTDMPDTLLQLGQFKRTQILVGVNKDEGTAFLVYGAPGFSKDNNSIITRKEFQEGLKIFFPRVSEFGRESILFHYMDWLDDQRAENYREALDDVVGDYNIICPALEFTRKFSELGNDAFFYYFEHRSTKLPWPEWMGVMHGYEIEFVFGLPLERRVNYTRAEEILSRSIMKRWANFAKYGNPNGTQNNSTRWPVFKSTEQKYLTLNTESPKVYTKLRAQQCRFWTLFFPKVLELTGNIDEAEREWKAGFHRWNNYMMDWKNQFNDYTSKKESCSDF
Sequence of Acetylcholinesterase (Electrophorus electricus) (O42275 24-633 limits assumed): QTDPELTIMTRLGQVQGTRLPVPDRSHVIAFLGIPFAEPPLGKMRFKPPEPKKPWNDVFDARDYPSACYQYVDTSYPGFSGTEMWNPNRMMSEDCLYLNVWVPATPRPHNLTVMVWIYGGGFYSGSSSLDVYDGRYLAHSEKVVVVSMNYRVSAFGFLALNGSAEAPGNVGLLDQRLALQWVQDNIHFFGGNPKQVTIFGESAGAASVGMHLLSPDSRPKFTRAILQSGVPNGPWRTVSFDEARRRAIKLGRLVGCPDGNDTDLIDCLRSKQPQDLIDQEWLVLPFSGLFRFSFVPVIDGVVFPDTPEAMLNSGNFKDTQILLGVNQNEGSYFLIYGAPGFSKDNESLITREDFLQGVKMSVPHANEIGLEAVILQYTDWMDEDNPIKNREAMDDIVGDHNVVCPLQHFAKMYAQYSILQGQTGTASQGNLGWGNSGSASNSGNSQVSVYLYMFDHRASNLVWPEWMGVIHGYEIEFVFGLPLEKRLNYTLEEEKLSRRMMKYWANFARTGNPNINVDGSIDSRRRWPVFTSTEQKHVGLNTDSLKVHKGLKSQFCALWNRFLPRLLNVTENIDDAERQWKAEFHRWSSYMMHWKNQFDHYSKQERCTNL
Sequence of Acetylcholinesterase (Homo sapiens) (P22303 whole entry): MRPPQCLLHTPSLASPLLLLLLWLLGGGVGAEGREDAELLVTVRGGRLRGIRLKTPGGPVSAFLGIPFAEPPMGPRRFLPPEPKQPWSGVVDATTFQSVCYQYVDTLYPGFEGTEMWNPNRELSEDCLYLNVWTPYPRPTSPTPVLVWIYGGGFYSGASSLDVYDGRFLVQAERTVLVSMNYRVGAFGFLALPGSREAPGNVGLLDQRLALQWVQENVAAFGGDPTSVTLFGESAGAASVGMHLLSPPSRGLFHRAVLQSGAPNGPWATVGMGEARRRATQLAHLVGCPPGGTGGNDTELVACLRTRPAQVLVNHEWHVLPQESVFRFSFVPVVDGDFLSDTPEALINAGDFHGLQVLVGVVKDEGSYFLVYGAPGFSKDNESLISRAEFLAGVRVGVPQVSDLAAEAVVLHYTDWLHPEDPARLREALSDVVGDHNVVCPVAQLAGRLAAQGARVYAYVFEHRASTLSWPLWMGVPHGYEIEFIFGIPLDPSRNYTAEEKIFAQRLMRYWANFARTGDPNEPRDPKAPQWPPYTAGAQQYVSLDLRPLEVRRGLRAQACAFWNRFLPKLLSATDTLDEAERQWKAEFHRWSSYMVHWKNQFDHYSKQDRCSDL
Sequence of Cholinesterase (Homo sapiens, UniProt P06276) (P06276 whole entry): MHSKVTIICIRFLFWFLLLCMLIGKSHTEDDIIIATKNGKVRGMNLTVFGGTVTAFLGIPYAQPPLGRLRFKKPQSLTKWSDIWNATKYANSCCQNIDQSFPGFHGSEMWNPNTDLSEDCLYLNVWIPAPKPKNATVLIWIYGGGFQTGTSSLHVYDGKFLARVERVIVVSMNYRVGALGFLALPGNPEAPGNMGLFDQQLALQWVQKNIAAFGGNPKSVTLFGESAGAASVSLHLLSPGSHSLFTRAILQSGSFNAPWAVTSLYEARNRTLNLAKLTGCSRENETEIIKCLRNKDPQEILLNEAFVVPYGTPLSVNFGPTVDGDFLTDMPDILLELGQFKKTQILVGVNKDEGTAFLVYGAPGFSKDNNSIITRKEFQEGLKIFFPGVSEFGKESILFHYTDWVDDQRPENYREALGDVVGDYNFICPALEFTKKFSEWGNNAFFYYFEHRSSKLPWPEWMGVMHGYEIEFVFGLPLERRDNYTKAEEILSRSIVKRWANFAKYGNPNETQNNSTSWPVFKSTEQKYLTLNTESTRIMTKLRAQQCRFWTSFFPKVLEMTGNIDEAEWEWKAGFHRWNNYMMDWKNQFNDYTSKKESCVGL

With `CNC(=O)Oc1cc(C(C)C)ccc1C` the inhibition [1] was 56% and the IC50 (Cholinesterase [2]) was 2960 nM.
`COc1ccc(C(C)=O)c(OC(=O)N2CCC(C)CC2)c1` showed an inhibition [1] of 33%, an IC50 (Cholinesterase [2]) of 80 nM and an inhibition [3] of 23%. It also gave an IC50 (Cholinesterase [4]) of 1930 nM and an IC50 [5] of 28400 nM.
`CCN(C)C(=O)Oc1cc(OC)ccc1C(C)=O` showed an inhibition [1] of 1.7% and an IC50 (Cholinesterase [2]) of 3680 nM.
`C=CCc1ccc(OC(=O)N(C)Cc2ccc(Br)cc2)c(OC)c1` was tested, and the inhibition [1] was “inactive” and the inhibition [6] was 57%.
For `COc1ccc(C(C)=O)c(OC(=O)N(C)Cc2cccc(Br)c2)c1`, the inhibition [1] was “inactive” and the IC50 (Cholinesterase [2]) was 3410 nM.
Compound `C=CCc1ccc(OC(=O)N(C)Cc2cccc(Br)c2)c(OC)c1` has an inhibition [1] of 17% and an inhibition [6] of 67%.
In the case of `Cc1ccc(C(C)C)cc1OC(=O)N(C)Cc1cccc(Br)c1`, the inhibition [1] is reported as 37% and the IC50 (Cholinesterase [2]) is reported as 3810 nM.
For `CNC(=O)Oc1cc(OC)ccc1C(C)=O`, the inhibition [1] was 23% and the IC50 (Cholinesterase [2]) was 2540 nM.
In the case of `COc1ccc(C(C)=O)c(OC(=O)N(C)Cc2ccc(Br)cc2)c1`, the inhibition [1] is reported as 34% and the IC50 (Cholinesterase [2]) is reported as 2810 nM.
`C=CCc1ccc(OC(=O)N(C)CC)c(OC)c1` gave an inhibition [1] of 69% and an inhibition [6] of 74%.
With `Cc1ccc(C(C)C)cc1OC(=O)N1CCCC1` the inhibition [1] was “inactive” and the IC50 (Cholinesterase [2]) was 680 nM.
With `COc1ccc(C(C)=O)c(OC(=O)N(C)Cc2ccccc2)c1` the inhibition [1] was 6.6% and the IC50 (Cholinesterase [2]) was 190 nM.
`COc1ccc(C(C)=O)c(OC(=O)N2CCC(Cc3ccccc3)CC2)c1` was tested, and the inhibition [1] was 43% and the IC50 (Cholinesterase [2]) was 310 nM.
`COc1ccc(C(C)=O)c(OC(=O)N(C)Cc2ccc(Cl)cc2)c1` was tested, and the inhibition [1] was 5.8%, the IC50 (Cholinesterase [2]) was 57 nM and the inhibition [3] was “inactive”. For the same compound, the IC50 (Cholinesterase [4]) was 89 nM and the IC50 [5] was 16600 nM.
With `C=CCc1ccc(OC(=O)NC)c(OC)c1` the inhibition [1] was 42% and the inhibition [6] was 53%.
Compound `COc1ccc(C(C)=O)c(OC(=O)N2CCc3ccccc3C2)c1` has an inhibition [1] of 27% and an IC50 (Cholinesterase [2]) of 11500 nM.
Compound `Cc1ccc(C(C)C)cc1OC(=O)N(C)C` has an inhibition [1] of 62% and an IC50 (Cholinesterase [2]) of 590 nM.
In the case of `COc1cc2c(cc1OC)C(=O)C(CC1CCN(Cc3ccccc3)CC1)C2` (stereo not given) [DONEPEZIL], the Activity (L02 [7]) is reported as “Non-toxic”, the Activity (L02 [8]) is reported as 83.4% and the Activity (PC-12) is reported as 43%.
`Cc1ccc(C(C)C)cc1OC(=O)N(C)Cc1ccc(Br)cc1` was tested, and the inhibition [1] was 32% and the IC50 (Cholinesterase [2]) was 1960 nM.

Reference: ChEMBL document CHEMBL6087398, “Natural phenol carbamates: Selective BuChE/FAAH dual inhibitors show neuroprotection in an Alzheimer's disease mouse model” (Eur J Med Chem, 2025)
